Measurements: patent publication US4800194A, “Acylphosphorotriamides useful as lipid-altering agents” (priority 1986, dated 1989)

Assays:
pseudocholinesterase [1] = biological target: T1, pseudocholinesterase (Homo sapiens, UniProt P06276); experiment: Inhibition of human plasma pseudocholinesterase (PChE) activity (Test Method 1); type: biochemical; conditions: 30 min preincubation
T1 construct: a 100 μl aliquot of human plasma; from tissue; host or cells: human plasma (EDTA blood, stored frozen)
Description: The following method was used to determine the relative inhibition of pseudocholinesterase and acetylcholinesterase by compounds of the present invention.
Plasma (Source of Pseudocholinesterase Enzyme)
Human Plasma was obtained from blood which was collected in ethylenediaminetetraacetic acid (EDTA) treated tubes. Collected plasma was stored frozen at -20° C. until use.
The buffer/chromogen solution was 0.25 mM 5,5'-dithiobis-[2-nitrobenzoic acid] (chromogen), 50 mM phosphate buffer, pH 7.2. In making up the buffer/chromogen solution and to keep it as colorless as possible, the phosphate buffer was first adjusted to pH 7.1 with NaOH; the chromogen was then added and dissolved; the pH was adjusted to 7.2; and the final volume was adjusted with addition of Milli-Q water. 5,5'-dithiobis-(2-nitrobenzoic acid) was obtained from Sigma Chemicals, St. Louis, MO.
The substrate solution for the pseudocholinesterase assay was 156 mM S-butyrylthiocholine iodide, and the substrate solution for the acetylcholinesterase assay was 156 mM S-acetylthiocholine iodide. Both substrate compounds were obtained from Sigma Chemicals.
Test Compound Stock Solutions
Solutions of all test compounds were made up at 2 μM, 20 μM, and 200 μM concentrations (in 0.9% saline solution) except as noted where lower concentrations were necessary because of decreased solubility of the compound in saline solution.
Pseudocholinesterase (PChE) Assay
In three separate tubes, a 100 μl aliquot of either 0.9% saline solution, 2 μM test compound solution, or 20 μM test compound solution was mixed with a 100 μl aliquot of human plasma, and the tubes were placed in a 35° C. water bath. Four cuvettes, each containing 3 ml buffer/chromogen solution mixed with 100 μl substrate solution (156 mM S-butyrylthiocholine iodide), had been placed in a heated cuvette holder (35° C.) in a Beckman DU-8B Spectrophotometer (Beckman Instruments). After the temperature of the buffer/chromogen/substrate solution in the cuvette had equilibrated for about 10 minutes, and after 0 or 30 minutes incubation of the plasma/test compound solution, a 25 μl aliquot of the plasma/test compound solutions was added to the corresponding cuvettes numbered 2-4. Cuvette #1 remained a blank. After mixing, the net absorbance of each cuvette was determined at 405 nm every 35 seconds for ten readings. From a plot of net absorbance versus time, the initial linear portion of the curve was determined, and a rate of absorbance change per minute was calculated. The positive control (100% PChE activity) was the plasma/saline solution.
Each compound was tested for its ability to inhibit plasma pseudocholinesterase activity and acetylcholinesterase activity. Because of variation in the time points in the linear portion of the curve, inhibition values below 10-15% and higher than 85-90% are nearly indistinguishable from 0% and 100%, respectively.

pseudocholinesterase [2] = experiment: Multiple dose study in hyperlipidemic guinea pigs: plasma pseudocholinesterase activity (Test Method 2, Example 29); type: in vivo, guinea pig; conditions: 2.5 mg/kg i.p. once daily
Source text: Male Hartley guinea pigs (Elm Hill Breeding Labs., Chelmsford, MA or Charles River, Wilmington, MA) was used in all experiments unless otherwise specified. The animals were maintained on a normal diet of rabbit pellets (Purina Rabbit Chow 5321, Ralston Purina, St. Louis, MO) and water containing 0.1% ascorbic acid ad libitum. For special studies in the hyperlipidemic guinea pig model, the animals were maintained on the high cholesterol diet described in this report and water containing 0.1% ascorbic acid ad libitum.
Individual animals were identified by ear and cage markings. The dose of drug or placebo was adjusted daily for changes in the weight of the guinea pigs. Blood samples were collected in EDTA Vacutainers by open chest cardiac puncture under carbon dioxide anesthesia from guinea pigs which had been fasted overnight. The animals were then sacrificed by CO2 inhalation. Blood samples were centrifuged at 2000 rpm for 15 min. in an IEC centrifuge (International Equipment Co., Boston, MA) with a 240 rotor for isolation of plasma. Lipoprotein analyses of plasma were carried out on the same day as the blood collection. Assays of pseudocholinesterase activity were carried out within a week of blood collection on plasma samples which had been stored at 4° C.
The assay method used was based on the procedure described in Ellman, G. L., K. D. Courtney, V. Andres & R. M. Featherstone, "A New and Rapid Colorimetric Determination of Acetylcholinesterase Activity", Biolchemical Pharmacology, Vol. 7 (1961), pp. 88-95. Reactions were carried out at 35° C. in pH 7.2 NaH2 PO4 50 mM buffer containing 5 mM butyrylthiocholine iodide (substrate) and 0.25 mM 5,5'-dithiobis-[2-nitrobenzoic acid] (chromogen). The rate of change of absorbance at 405 nm with time was monitored by means of a Cary 16 spectrophotometer (Varian Associates, Walnut Creek, CA) or a Beckman DU-8B spectrophotometer (Beckman Instruments, Inc., Palo Alto, CA). Corrections were made for non-enzymic hydrolysis of substrate.
Enzyme Buffer: 6.90 g (50 mmol) NaH2 PO4.H2 O+[…] (0.25 mmol) 5,5'-dithiobis-(2-nitrobenzoic acid). The reagents were dissolved in Milli-Q purified distilled water, titrated to pH 7.2 with 1N NaOH, and diluted to one liter with water.
Substrate: 0.2476 g (0.780 mmol) S-butyrylthiocholine iodide (BTC). The substrate was dissolved in 5 ml of Milli-Q purified distilled water. [BTC]=156 mM.
Into a 1-cm pathlength cuvette was placed 3.0 ml of enzyme buffer. At least 10 min. was allowed for temperature equilibration. A 100 μl aliquot of substrate was added to the cuvette, the solution was mixed and about 3 min. was allowed for determination of the non-enzymic rate of substrate hydrolysis before the enzymic reaction was initiated by addition of 25 μl of plasma. The increase in absorbance at 405 nm was measured vs. a blank containing enzyme buffer.
Into a 1-cm pathlength cuvette was placed 3.0 ml of enzyme buffer and 100 μl of substrate. The solution was mixed and about 10 min. was allowed for temperature equilibration. The reaction was initiated by addition of 25 μl of plasma. The increase in absorbance at 405 nm was measured vs. a blank containing enzyme buffer and substrate. No additional correction for non-enzymic substrate hydrolysis was necessary.
A 1:15 mixture of cholesterol:corn oil was prepared by adding 25 g of USP cholesterol (Sigma Chemical Company, St. Louis, MO) to 375 g of corn oil (Mazola, Best Foods, CPC International, Inc., Englewood Cliffs, NJ). The mixture was stirred, sonicated, and heated in a hot water bath until the cholesterol completely dissolved. It was necessary to keep the mixture warm (50°-60° C.) in order to prevent congealing.
Batches of feed were prepared by adding 160 g of the cholesterol-corn oil solution to 840 g of Purina Rabbit Chow 5321. The pellets and lipid mixture were thoroughly mixed in a 2-liter or 3-liter Erlenmeyer flask to ensure uniform coating of the pellets. The feed was then stored at room temperature until needed. […]

T1 sequence (P06276 29-602): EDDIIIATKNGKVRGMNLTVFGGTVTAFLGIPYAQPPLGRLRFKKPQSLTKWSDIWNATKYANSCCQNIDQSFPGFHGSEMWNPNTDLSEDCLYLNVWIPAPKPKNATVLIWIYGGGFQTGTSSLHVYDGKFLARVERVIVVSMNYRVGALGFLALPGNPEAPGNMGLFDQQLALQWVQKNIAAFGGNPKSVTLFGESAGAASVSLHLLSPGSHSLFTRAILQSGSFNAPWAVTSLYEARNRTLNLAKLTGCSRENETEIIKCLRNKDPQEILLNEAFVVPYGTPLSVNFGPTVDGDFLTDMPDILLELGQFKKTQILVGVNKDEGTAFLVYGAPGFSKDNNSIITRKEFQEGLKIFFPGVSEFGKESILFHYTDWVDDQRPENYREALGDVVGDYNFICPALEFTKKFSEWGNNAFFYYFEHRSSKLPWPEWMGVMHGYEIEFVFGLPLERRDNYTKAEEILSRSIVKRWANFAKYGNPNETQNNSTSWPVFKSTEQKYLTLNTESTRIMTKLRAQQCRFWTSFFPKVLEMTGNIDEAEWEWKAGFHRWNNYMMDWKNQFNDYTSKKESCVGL

## NP(N)(=O)NC(=O)c1ccc(F)cc1 [Test Compound 4, N-(diaminophosphinyl)-4-fluorobenzamide]
Pseudocholinesterase [1]; 1 μM
  inhibition at 1 µM: 92.8%
Pseudocholinesterase [1]; 10 μM
  inhibition at 10 µM: 99.1%
Pseudocholinesterase [2]; day 1
  % PChE Inhibition (Compared to Control): 51.6%
Pseudocholinesterase [2]; day 3
  % PChE Inhibition (Compared to Control): 45.0%
Pseudocholinesterase [2]; day 7
  % PChE Inhibition (Compared to Control): 58.6%
Pseudocholinesterase [2]; day 10
  % PChE Inhibition (Compared to Control): 65.0%
Pseudocholinesterase [2]; day 14
  % PChE Inhibition (Compared to Control): 69.0%
Pseudocholinesterase [2]; high cholesterol diet, result in words
  plasma pseudocholinesterase activity vs saline-treated control: substantially lower plasma pseudocholinesterase activity
